Measured values published in patent US20110105554A1, “MEANS FOR TREATING MYOSIN-RELATED DISEASES” (KINARIS BIOMEDICALS GMBH, priority 2007, published 2011).

System: heavy meromyosin (HMM) prepared from rabbit skeletal muscle myosin-2
Assay: Inhibitor screening: colorimetric high-throughput myosin ATPase assay with HMM
Format: biochemical
Excerpt: Preferably, said activity is the capability of said myosin (i) to bind actin; (ii) to convert ATP into ADP and Pi; and/or (iii) to generate force and/or movement. Exemplary or preferred binding assays are described herein above and can be applied for determining whether myosin binds actin, preferably F-actin, and/or nucleotides. Exemplary or preferred activity assays are described herein below and can be applied for determining whether myosin is capable of converting ATP into ADP and Pi or of force production and generation of movement. An exemplary assay for ATPase activity is based on the detection of free phosphate formed upon cleavage of ATP, wherein the detection is effected using malachite green. For an exemplary workflow, see FIG. 17.
FIG. 6: Histogram showing the relative myosin-2 ATPase activity measured in the absence (+control) and presence of halogenated alkaloids. Blebbistatin und BTS were used as controls. Compounds of the HET-series, BTS and blebbistatin were used at 25 μM final concentration. HET-43 is PBP (pentabromopseudilin). […]
Inhibitor screening. […] The amount of dye formed after 20 min color development at room temperature was determined with a Tecan Infinite™ microplate reader (Cralisheim, Germany).

Oc1c(Br)cc(Br)cc1-c1[nH]c(Br)c(Br)c1Br [KIN-43]
inhibition of HMM ATPase activity: very potent inhibitor
